Values quoted from earlier work in US9421268B2, “Pediatric oral liquid compositions containing nepadutant” (LABORATORI GUIDOTTI S.P.A., priority 2012, dated 2016).
Bridge positions count the residues as written; N and C are the ends. Square brackets hold non-standard residues; d marks the D form. Peptide text beside a SMILES is read from it. * marks the point of attachment. NH(β-GlcNAc) = CC(=O)N[C@@H]1[C@@H](O)[C@H](O)[C@@H](CO)O[C@H]1N*; Dap = NC[C@H](N)C(=O)O

Key:
[1] = in vivo; cited from earlier work
NK2 receptors = biological target: T1, NK2 receptors (Rattus norvegicus, UniProt P16610); details: oral, new born rats, basal parameters not altered; cited from earlier work
T1 construct: from tissue; host or cells: intestine of new born rats (in vivo)
T1 sequence (P16610 1-390): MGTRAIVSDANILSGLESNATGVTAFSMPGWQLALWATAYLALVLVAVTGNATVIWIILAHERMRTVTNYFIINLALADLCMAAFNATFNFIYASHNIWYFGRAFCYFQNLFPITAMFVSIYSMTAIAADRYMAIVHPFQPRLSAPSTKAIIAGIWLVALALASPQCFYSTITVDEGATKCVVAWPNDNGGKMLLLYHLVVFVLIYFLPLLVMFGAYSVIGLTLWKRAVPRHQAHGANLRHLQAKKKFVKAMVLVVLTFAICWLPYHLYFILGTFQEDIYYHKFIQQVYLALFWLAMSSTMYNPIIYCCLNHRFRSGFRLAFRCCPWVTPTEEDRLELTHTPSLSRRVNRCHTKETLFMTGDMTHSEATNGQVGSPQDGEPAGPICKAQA

hyperalgesia = details: new born rats; cited from earlier work

In the case of `CC(=O)N[C@@H]1[C@@H](O)[C@H](O)[C@@H](CO)O[C@H]1NC(=O)C[C@@H]1NC(=O)[C@H](CC(C)C)NC(=O)[C@@H]2CNC(=O)C[C@H](NC1=O)C(=O)N[C@@H](Cc1c[nH]c3ccccc13)C(=O)N[C@@H](Cc1ccccc1)C(=O)N2` [Nepadutant, [N^4-(2-acetylamino-2-deoxy-β-D-glucopyranosyl)-L-asparaginyl-L-α-triptophan-L-phenylalanyl-L-2,3-diaminopropio-nil-L-leucil]-C-4.2-N-3.5-lattame-C-1.6-N-2.1-lattame] (cyclo(D(NH(β-GlcNAc))DWF[Dap]L); lactam 2-5), the oral absorption [1] is given as “absorbed”, the “time after administration up to which the increase in intestinal transit is blocked” value (NK2 receptors) is given as “up to 24 hours” and the “efficacy in a model of hyperalgesia” value (hyperalgesia) is given as “effective”.
